Data as given in patent EP1144412B1, “IMMUNOSUPPRESSIVE EFFECTS OF PTERIDINE DERIVATIVES” (4 AZA Bioscience nv, priority 1998, dated 2000).
Like-named read-outs stand apart in the source and are kept apart here.

What was measured:
Highly purified T cells [1] = test: T cell proliferation induced by anti-CD3 mAb + PMA (BrdU incorporation); format: cell-based, Human; settings: Homo sapiens, T-cell
Excerpt: (§1) Various models may be used for testing an immunosuppressive effect. In vivo, for example, different transplantation models are available. They are strongly influenced by different immunogenicities, depending on the donor and recipient species used and depending on the nature of the transplanted organ. The survival time of transplanted organs can thus be used to measure the suppression of the immune response. In vitro, there exist also various models. The most used are lymphocyte activation tests. Usually activation is measured via lymphocyte proliferation. Inhibition of proliferation thus always means immunosuppression under the experimental conditions applied. There exist different stimuli for lymphocyte activation: • coculture of lymphocytes of […] (MLR = mixed lymphocyte reaction): lymphocytes expressing different minor and major antigens of the HLA-DR type (= alloantigens) activate each other non-specifically. • CD3 assay: here there is an activation of the T-lymphocytes via an exogenously added antibody (OKT3). This antibody reacts against the CD3 molecule located on the lymphocyte membrane. This molecule has a costimulatory function. […] This molecule is also located on the lymphocyte membrane, and delivers strong costimulatory signals.
(§2) T cells were purified by removing non-T cells. Briefly,monocytes were removed by cold agglutination. The resulting lymphoid cells were further purified by a cell enrichment immunocolumn [Cellect Human T (Biotex, Edmonton, Alberta, Canada)] by a process of negative selection.
(§3) Measurements of T cell proliferations induced by anti-CD3 mAb + PMA or anti-CD28 mAb + PMA
(§4) Highly purified T cells (10^6/ml) were stimulated by immobilized anti-CD3 àr anti-CD28 mAb in the presence of PMA. Anti-CD3 mAb (CLB-CD3; CLB, Amsterdam, The Netherlands) were fixed on the 96-microwell plates by incubating the wells with 50 µl of mAb solution (1/800 dilution in culture medium). Anti-CD28 mAb (CLB-CD28; CLB, Amsterdam, The Netherlands) 50 µl (1/650 dilution in culture medium) was added directly to the wells. Further, 20 µl PMA (Sigma, St. Louis, MO, USA) solution (final concentration: 0.5 ng/ml) was added. Subsequently, 20 µl of immunosuppressants were added by serial dilution in triplicate wells. Finally 100 µl of the T cell suspension (10^6/ml) was added. After 48-hour incubation at 37EC in 5% CO2 20 Φl BrdU (100 ΦM solution) (Cell Proliferation Elisa, Boehringer-Mannheim Belgium) was added to each well. After a further overnight incubation the T cell proliferation was measured using a colorimetric immunoassay for qualification of cell proliferation based on measurements of the incorporation of BrdU during DNAsynthesis. The optical density (OD) was measured by a Behring EL311 plate reader at 450 nm (reference wavelength: 690 nm). The percent suppression of proliferation by drugs was counted using the formula: Per cent inhibition =((OD + drugs) - (OD Cult. Med.))/((OD - drugs) - (OD Cult. Med.))x 100 [formula]

Highly purified T cells [2] = test: T cell proliferation induced by anti-CD28 mAb + PMA (BrdU incorporation); format: cell-based, Human; settings: Homo sapiens, T-cell
Excerpt: as §1, §2, §3, §4

[3] = system: Peripheral blood mononuclear cells (PBMC); test: Mixed lymphocyte reaction (MLR), [3H]-thymidine incorporation; format: cell-based; settings: Homo sapiens
Excerpt: as §1
Peripheral blood mononuclear cells (PBMC) were isolated from heparinized peripheral blood by density gradient centrifugation over Lymphoprep (Nycomed, Maorstua, Norway). Allogeneic PBMC or EBV-transformed human B cells [RPMI1788 (ATCC name CCL156)] which strongly express B7-1 and B7-2 were used as stimulator cells after irradiation with 30 Gy. MLR was performed in triplicate wells. After 5 days incubation at 37EC, 1 µCi [^3H]-thymidine was added to each cup. After a further 16 hours incubation, cells were harvested and counted in a β-counter.
The percent suppression of proliferation by drugs was counted using the formula Percent inhibition =((cpm + drugs) - cpm Cult. Med)/((cpm - drugs) - cpm Cult. Med.)x 100 [formula]

[4] = Table II, read-out: IC50 in µM of pteridine derivative ACD3
[5] = untitled structure table, no unit printed there, same values in Table II as IC50 in µM, read-out: aCD3
[6] = Table II, read-out: IC50 in µM of pteridine derivative aCD28
[7] = untitled structure table, no unit printed there, same values in Table II as IC50 in µM, read-out: aCD28
[8] = Table II, read-out: IC50 in µM of pteridine derivative MLR
[9] = untitled structure table, no unit printed there, same values in Table II as IC50 in µM, read-out: MLR
[10] = untitled structure table, IC50 subranges, read-out: aCD3
[11] = untitled structure table, IC50 subranges, read-out: aCD28
[12] = untitled structure table, IC50 subranges, read-out: MLR

Compound `COc1ccc(-c2cnc3nc(N)nc(N)c3n2)cc1` [Compound 8, 2,4-diamino-6-(4-methoxyphenyl)pteridine] has an IC50 (Highly purified T cells [1]; [4]) of 125 µM, an IC50 (Highly purified T cells [1]; [5]) of 125 µM and an IC50 (Highly purified T cells [2]; [6]) of 22 µM. The IC50 (Highly purified T cells [2]; [7]) was 22 µM, the IC50 [3, 8] was 150 µM and the IC50 [3, 9] was greater than 150 µM.
`Cc1oncc1C(=O)Nc1ccc(C(F)(F)F)cc1` [Leflunomide, reference compound] was tested, and the IC50 (Highly purified T cells [1]; Table III, comparison immunosuppressants, read-out: IC50 aCD3) was 15 µM, the IC50 (Highly purified T cells [2]; Table III, comparison immunosuppressants, read-out: IC50 aCD28) was 20 µM and the IC50 ([3]; Table III, comparison immunosuppressants, read-out: IC50 MLR) was 25 µM.
Compound `CN(C)Cc1cnc2nc(N)nc(N)c2n1` [Compound 20, 2,4-diamino-6-dimethyl aminomethyl pteridine] has an IC50 (Highly purified T cells [1]; [4]) of 170 µM, an IC50 (Highly purified T cells [1]; [5]) of 170 µM and an IC50 (Highly purified T cells [2]; [6]) of 100 µM. The IC50 (Highly purified T cells [2]; [7]) was 100 µM, the IC50 [3, 8] was greater than 200 µM and the IC50 [3, 9] was greater than 200 µM.
`CCN(CC)c1nc(N)nc2ncc(-c3ccccc3)nc12` [Compound 21, 2-amino-4-diethylamino-6-phenylpteridine] showed an IC50 (Highly purified T cells [1]; [4]) of 80 µM, an IC50 (Highly purified T cells [1]; [5]) of 80 µM and an IC50 (Highly purified T cells [2]; [6]) of 20 µM. The IC50 (Highly purified T cells [2]; [7]) was 20 µM, the IC50 [3, 8] was 15 µM and the IC50 [3, 9] was 15 µM.
Work on `Nc1nc(N2CCOCC2)c2nc(-c3ccc(Cl)cc3)cnc2n1` [Compound 34, 2-amino-4-morpholino-6-(4-chlorophenyl)pteridine] yielded an IC50 (Highly purified T cells [1]; [4]) of 20 µM, an IC50 (Highly purified T cells [1]; [5]) of 20 µM and an IC50 (Highly purified T cells [2]; [6]) of 20 µM. The IC50 (Highly purified T cells [2]; [7]) was 20 µM, the IC50 [3, 8] was 12 µM and the IC50 [3, 9] was 12 µM.
Work on `CCN(CC)c1nc(N)nc2ncc(-c3ccc(OC)cc3)nc12` [Compound 23, 2-amino-4-diethylamino-6-(4-methoxyphenyl) pteridine] yielded an IC50 (Highly purified T cells [1]; [4]) of 20 µM, an IC50 (Highly purified T cells [1]; [5]) of 20 µM and an IC50 (Highly purified T cells [2]; [6]) of 20 µM. It also gave an IC50 (Highly purified T cells [2]; [7]) of 20 µM, an IC50 [3, 8] of 12 µM and an IC50 [3, 9] of 12 µM.
For `Nc1nc(NO)c2nc(-c3ccccc3)cnc2n1` [Compound 13, 2-amino-4-hydroxylamino-6-phenylpteridine], the IC50 (Highly purified T cells [1]; [4]) was greater than 200 µM, the IC50 (Highly purified T cells [1]; [5]) was greater than 200 µM and the IC50 (Highly purified T cells [2]; [6]) was greater than 200 µM. It also gave an IC50 (Highly purified T cells [2]; [7]) greater than 200 µM, an IC50 [3, 8] of 140 µM and an IC50 [3, 9] of 140 µM.
`COc1ccc(-c2cnc3nc(NC(C)=O)nc(OC(C)C)c3n2)cc1OC` [Compound 65, 2-acetamido-4-i-propoxy-6-(3,4-dimethoxyphenyl)pteridine] was tested, and the IC50 (Highly purified T cells [1]; [10]) was 16 to 150 µM, the IC50 (Highly purified T cells [2]; [11]) was 16 to 150 µM and the IC50 [3, 12] was 1 to 15 µM.
For `CCCOCc1cnc2nc(N)nc(N)c2n1` [CH2 O CH2CH2CH3, reference compound], the IC50 (Highly purified T cells [1]; Table IV, known pteridine derivatives, IC50 subranges, read-out: aCD3) was greater than 151 µM, the IC50 (Highly purified T cells [2]; Table IV, known pteridine derivatives, IC50 subranges, read-out: aCD28) was greater than 151 µM and the IC50 ([3]; Table IV, known pteridine derivatives, IC50 subranges, read-out: MLR) was greater than 151 µM.
`Nc1nc(N)c2nc(CNCc3ccccc3)cnc2n1` [Compound 19, 2,4-diamino-6-benzylaminomethyl pteridine] showed an IC50 (Highly purified T cells [1]; [4]) of 123 µM, an IC50 (Highly purified T cells [1]; [5]) of 123 µM and an IC50 (Highly purified T cells [2]; [6]) of 118 µM. It also gave an IC50 (Highly purified T cells [2]; [7]) of 118 µM, an IC50 [3, 8] of 50 µM and an IC50 [3, 9] of 50 µM.
Compound `COc1ccc(-c2cnc3nc(N)nc(N4CCNCC4)c3n2)cc1OC` [Compound 49, 2-amino-4-piperazino-6-(3,4-dimethoxyphenyl)pteridine] has an IC50 (Highly purified T cells [1]; [4]) of 14.8 µM, an IC50 (Highly purified T cells [1]; [5]) of 14.8 µM and an IC50 (Highly purified T cells [2]; [6]) of 4.5 µM. It also gave an IC50 (Highly purified T cells [2]; [7]) of 4.5 µM, an IC50 [3, 8] of 2.8 µM and an IC50 [3, 9] of 2.8 µM.
`Nc1nc(N2CCOCC2)c2nc(-c3ccccc3)cnc2n1` [Compound 33, 2-amino-4-morpholino-6-phenylpteridine] gave an IC50 (Highly purified T cells [1]; [4]) of 100 µM, an IC50 (Highly purified T cells [1]; [5]) of 100 µM and an IC50 (Highly purified T cells [2]; [6]) of 20 µM. The IC50 (Highly purified T cells [2]; [7]) was 20 µM, the IC50 [3, 8] was 15 µM and the IC50 [3, 9] was 15 µM.
`COc1ccc(-c2cnc3nc(N)nc(N(C)C)c3n2)cc1OC` [Compound 59, 2-amino-4-dimethylamino-6-(3,4-dimethoxyphenyl)pteridine] gave an IC50 (Highly purified T cells [1]; [10]) of 1 to 15 µM, an IC50 (Highly purified T cells [2]; [11]) of 1 to 15 µM and an IC50 [3, 12] of less than 1 µM.
For `CN(C)c1nc(N)nc2ncc(-c3ccc4c(c3)OCO4)nc12` [Compound 57, 2-amino-4-dimethylamino-6-(3,4-formylidene-3,4-dihydroxyphenyl)pteridine], the IC50 (Highly purified T cells [1]; [10]) was 16 to 150 µM, the IC50 (Highly purified T cells [2]; [11]) was 16 to 150 µM and the IC50 [3, 12] was greater than 151 µM.
`COc1nc(N)nc2ncc(C(O)C(C)O)nc12` (stereo not drawn) [Compound 4, 2-amino-4-methoxy-6-(1,2-dihydroxypropyl)pteridine] showed an IC50 (Highly purified T cells [1]; [4]) of 140 µM, an IC50 (Highly purified T cells [1]; [5]) of 140 µM and an IC50 (Highly purified T cells [2]; [6]) of 110 µM. It also gave an IC50 (Highly purified T cells [2]; [7]) of 110 µM, an IC50 [3, 8] greater than 200 µM and an IC50 [3, 9] greater than 200 µM.
`Cc1ccc(-c2cnc3nc(NCCO)nc(N)c3n2)cc1` [Compound 11, 2-hydroxyethylamino-4-amino-6-(4-tolyl)pteridine] gave an IC50 (Highly purified T cells [1]; [4]) of 200 µM, an IC50 (Highly purified T cells [1]; [5]) of 200 µM and an IC50 (Highly purified T cells [2]; [6]) of 160 µM. The IC50 (Highly purified T cells [2]; [7]) was 160 µM, the IC50 [3, 8] was greater than 200 µM and the IC50 [3, 9] was greater than 200 µM.
Compound `COc1ccc(-c2cnc3nc(N)nc(N4CCNCC4)c3n2)cc1` [Compound 48, 2-amino-4-piperazino-6-(4-methoxyphenyl)pteridine] has an IC50 (Highly purified T cells [1]; [4]) of 14 µM, an IC50 (Highly purified T cells [1]; [5]) of 14 µM and an IC50 (Highly purified T cells [2]; [6]) of 4.5 µM. For the same compound, the IC50 (Highly purified T cells [2]; [7]) was 4.5 µM, the IC50 [3, 8] was 10.5 µM and the IC50 [3, 9] was 10.5 µM.
`CCCN(CCC)c1nc(N)nc2ncc(-c3ccc(OC)cc3)nc12` [Compound 31, 2-amino-4-dipropylamino-6-(4-methoxyphenyl)pteridine] showed an IC50 (Highly purified T cells [1]; [4]) of 5.7 µM, an IC50 (Highly purified T cells [1]; [5]) of 5.7 µM and an IC50 (Highly purified T cells [2]; [6]) of 2.8 µM. The IC50 (Highly purified T cells [2]; [7]) was 2.8 µM, the IC50 [3, 8] was 8.5 µM and the IC50 [3, 9] was 8.5 µM.
